Reference: the supplement of paper PMC10307832

Experiments:
Assay in all cases: relative viability (nuclei count vs DMSO), 5 days (fraction); higher = more cells survive
SK-LU-1 = tested on: SK-LU-1
Outline: (§1)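 Lung cancer cell lines were pin-tool dosed in 1536-well plates on the day after seeding, with either a lone drug or a fixed anchor-drug dose plus five library-drug doses (not always all listed) in √10 steps. Nuclei were counted on 4× images after 5 days. Relative viability is the ratio of treated-well to vehicle-well nuclei counts, with each value a median of duplicate plates.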

ChaGo-K-1 = tested on: ChaGo-K-1
Outline: as §1

LU99A = tested on: LU99A
Outline: as §1

UMC-11 = tested on: UMC-11
Outline: as §1

NCI-H2405 = tested on: NCI-H2405
Outline: as §1

LCLC-97TM1 = tested on: LCLC-97TM1
Outline: as §1

NCI-H2228 = tested on: NCI-H2228
Outline: as §1

LK-2 = tested on: LK-2
Outline: as §1

NCI-H522 = tested on: NCI-H522
Outline: as §1

NCI-H1355 = tested on: NCI-H1355
Outline: as §1

HCC-827 = tested on: HCC-827
Outline: as §1

NCI-H1993 = tested on: NCI-H1993
Outline: as §1

## CCNC(=O)c1noc(-c2cc(C(C)C)c(O)cc2O)c1-c1ccc(CN2CCOCC2)cc1 [Luminespib] + CC(=O)Nc1cccc(-n2c(=O)n(C3CC3)c(=O)c3c(Nc4ccc(I)cc4F)n(C)c(=O)c(C)c32)c1 [Trametinib] (partner 0.02 µM)
SK-LU-1; first compound 0.002 µM
  relative viability: 0.478
SK-LU-1; first compound 0.006325 µM
  relative viability: 0.371
SK-LU-1; first compound 0.02 µM
  relative viability: 0.314
SK-LU-1; first compound 0.06325 µM
  relative viability: 0.178
SK-LU-1; first compound 0.2 µM
  relative viability: 0.185
ChaGo-K-1; first compound 0.002 µM
  relative viability: 0.831
ChaGo-K-1; first compound 0.006325 µM
  relative viability: 0.873
ChaGo-K-1; first compound 0.02 µM
  relative viability: 0.884
ChaGo-K-1; first compound 0.06325 µM
  relative viability: 0.861
ChaGo-K-1; first compound 0.2 µM
  relative viability: 0.892
LU99A; first compound 0.002 µM
  relative viability: 0.534
LU99A; first compound 0.006325 µM
  relative viability: 0.493
LU99A; first compound 0.02 µM
  relative viability: 0.378
LU99A; first compound 0.06325 µM
  relative viability: 0.482
LU99A; first compound 0.2 µM
  relative viability: 0.507
UMC-11; first compound 0.002 µM
  relative viability: 0.496
UMC-11; first compound 0.006325 µM
  relative viability: 0.685
UMC-11; first compound 0.02 µM
  relative viability: 0.308
UMC-11; first compound 0.06325 µM
  relative viability: 0.212
UMC-11; first compound 0.2 µM
  relative viability: 0.157
NCI-H2405; first compound 0.002 µM
  relative viability: 0.669
NCI-H2405; first compound 0.02 µM
  relative viability: 0.515
NCI-H2405; first compound 0.06325 µM
  relative viability: 0.252
NCI-H2405; first compound 0.2 µM
  relative viability: 0.202
LCLC-97TM1; first compound 0.002 µM
  relative viability: 0.233
LCLC-97TM1; first compound 0.006325 µM
  relative viability: 0.186
LCLC-97TM1; first compound 0.06325 µM
  relative viability: 0.221
LCLC-97TM1; first compound 0.2 µM
  relative viability: 0.166
NCI-H2228; first compound 0.002 µM
  relative viability: 0.512
NCI-H2228; first compound 0.006325 µM
  relative viability: 0.336
NCI-H2228; first compound 0.02 µM
  relative viability: 0.133
NCI-H2228; first compound 0.06325 µM
  relative viability: 0.0941
NCI-H2228; first compound 0.2 µM
  relative viability: 0.106
LK-2; first compound 0.002 µM
  relative viability: 0.834
LK-2; first compound 0.006325 µM
  relative viability: 0.711
LK-2; first compound 0.02 µM
  relative viability: 0.637
LK-2; first compound 0.06325 µM
  relative viability: 0.164
LK-2; first compound 0.2 µM
  relative viability: 0.166
NCI-H522; first compound 0.002 µM
  relative viability: 0.721
NCI-H522; first compound 0.006325 µM
  relative viability: 0.716
NCI-H522; first compound 0.02 µM
  relative viability: 0.693
NCI-H522; first compound 0.06325 µM
  relative viability: 0.635
NCI-H522; first compound 0.2 µM
  relative viability: 0.501
NCI-H1355; first compound 0.002 µM
  relative viability: 0.421
NCI-H1355; first compound 0.006325 µM
  relative viability: 0.445
NCI-H1355; first compound 0.02 µM
  relative viability: 0.265
NCI-H1355; first compound 0.06325 µM
  relative viability: 0.396
NCI-H1355; first compound 0.2 µM
  relative viability: 0.158
HCC-827; first compound 0.002 µM
  relative viability: 0.533
HCC-827; first compound 0.006325 µM
  relative viability: 0.506
HCC-827; first compound 0.02 µM
  relative viability: 0.279
HCC-827; first compound 0.06325 µM
  relative viability: 0.154
HCC-827; first compound 0.2 µM
  relative viability: 0.15
NCI-H1993; first compound 0.002 µM
  relative viability: 0.562
NCI-H1993; first compound 0.006325 µM
  relative viability: 0.424
